Test results as given in ChEMBL document CHEMBL5257080, “Optimization of physicochemical properties of pyrrolidine GPR40 AgoPAMs results in a differentiated profile with improved pharmacokinetics and reduced off-target activities” (Bioorg Med Chem, 2023).
Calls of active or inactive are those of the source. The rule behind the calls is not given here.

Tests used:
[1] = molecular target: T1, Free fatty acid receptor 1 (Homo sapiens, UniProt O14842); experiment: Positive allosteric modulation of human GPR40 expressed in HEK293 cells; format: cell-based
[2] = molecular target: T2, Peroxisome proliferator-activated receptor gamma (Homo sapiens, UniProt P37231); experiment: Transactivation of PPARgamma (unknown origin)
T2 sequence (P37231 whole entry): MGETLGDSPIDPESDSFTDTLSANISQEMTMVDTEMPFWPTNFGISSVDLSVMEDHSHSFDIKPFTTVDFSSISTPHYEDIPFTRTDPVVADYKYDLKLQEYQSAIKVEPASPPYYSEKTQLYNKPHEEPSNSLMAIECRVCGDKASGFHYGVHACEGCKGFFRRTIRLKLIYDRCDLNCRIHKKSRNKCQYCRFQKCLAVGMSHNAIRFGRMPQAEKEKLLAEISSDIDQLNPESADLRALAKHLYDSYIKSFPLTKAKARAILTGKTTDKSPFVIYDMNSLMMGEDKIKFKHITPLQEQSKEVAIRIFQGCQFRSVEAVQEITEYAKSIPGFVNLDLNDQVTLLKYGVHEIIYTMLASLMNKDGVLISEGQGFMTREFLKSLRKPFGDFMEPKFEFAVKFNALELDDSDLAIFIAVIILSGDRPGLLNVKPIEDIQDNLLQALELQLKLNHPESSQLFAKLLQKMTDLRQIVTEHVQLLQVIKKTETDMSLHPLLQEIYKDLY

[3] = molecular target: T1, Free fatty acid receptor 1; experiment: Positive allosteric modulation of human GPR40 by calcium based FLIPR analysis
[4] = Toxicity in rat assessed as change in spontaneous locomotor activity; details: in vivo
[5] = molecular target: T1, Free fatty acid receptor 1; experiment: Positive allosteric modulation of human GPR40 expressed in HEK293 cells assessed as maximum efficacy relative to control; format: cell-based; details: filed as positive allosteric modulator
[6] = Toxicity in rat assessed as change in heart rate; details: in vivo
[7] = Toxicity in Sprague-Dawley rat assessed as hypoglycemia at 80 mg/kg, po measured for 24 hrs by glucometer analysis; format: organism-based; details: in vivo
[8] = Toxicity in rat; details: in vivo
[9] = Drug concentration in mouse plasma measured after 3 hrs; format: ADME
[10] = Metabolic stability in mouse liver microsome assessed as parent compound remaining after 10 mins; format: ADME; details: liver microsomes, read-out: Stability
[11] = molecular target: Free fatty acid receptor 1 (Mus musculus, UniProt Q76JU9); experiment: Positive allosteric modulation of mouse GPR40
Mus musculus = experiment: Anti-hyperglycemic activity against mouse assessed as reduction in plasma glucose level at 3 mg/kg, po by OGTT analysis; format: functional, organism-based
[12] = Lipophilicity, logD of compound; format: physicochemical; details: octanol/water
[13] = Cmax in rat at 800 mg/kg qd; format: ADME, organism-based; parameters: dose 800 mg/kg; details: in vivo
[14] = Tmax in rat at 800 mg/kg qd; format: ADME, organism-based; details: in vivo
[15] = Tmax in rat at 240 mg/kg qd; format: ADME, organism-based; details: in vivo
[16] = Cmax in rat at 80 mg/kg qd; format: ADME, organism-based; parameters: dose 80 mg/kg; details: in vivo
[17] = Permeability of compound across apical to basolateral side in dog MDCK cells; format: ADME, cell-based, Canis lupus familiaris; details: read-out: permeability
[18] = Tmax in rat at 80 mg/kg qd; format: ADME, organism-based; details: in vivo
[19] = Cmax in rat at 40 mg/kg bid; format: ADME, organism-based; parameters: dose 40 mg/kg; details: in vivo
[20] = Cmax in rat at 240 mg/kg qd; format: ADME, organism-based; parameters: dose 240 mg/kg; details: in vivo
[21] = AUC (0 to 24 hrs) in rat at 240 mg/kg qd; format: ADME, organism-based; parameters: dose 240 mg/kg; details: in vivo
[22] = AUC (0 to 24 hrs) in rat at 800 mg/kg qd; format: ADME, organism-based; parameters: dose 800 mg/kg; details: in vivo
[23] = AUC (0 to 24 hrs) in rat at 80 mg/kg qd; format: ADME, organism-based; parameters: dose 80 mg/kg; details: in vivo
[24] = AUC (0-7hrs) in mouse at 1 mg/kg; format: ADME, organism-based; parameters: dose 1 mg/kg; details: in vivo
[25] = Cmax in mouse at 1 mg/kg; format: ADME, organism-based; parameters: dose 1 mg/kg; details: in vivo

T1 sequence (O14842 whole entry): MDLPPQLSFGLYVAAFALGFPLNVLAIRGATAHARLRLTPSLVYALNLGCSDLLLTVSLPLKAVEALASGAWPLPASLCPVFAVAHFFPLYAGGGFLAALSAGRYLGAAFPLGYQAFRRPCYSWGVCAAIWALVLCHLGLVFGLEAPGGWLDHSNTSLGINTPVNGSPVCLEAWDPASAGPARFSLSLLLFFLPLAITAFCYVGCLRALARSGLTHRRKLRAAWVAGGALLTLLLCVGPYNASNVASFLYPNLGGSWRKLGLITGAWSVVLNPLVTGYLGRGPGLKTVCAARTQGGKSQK
Chain of Free fatty acid receptor 1 (Mus musculus, UniProt Q76JU9) (Q76JU9 whole entry): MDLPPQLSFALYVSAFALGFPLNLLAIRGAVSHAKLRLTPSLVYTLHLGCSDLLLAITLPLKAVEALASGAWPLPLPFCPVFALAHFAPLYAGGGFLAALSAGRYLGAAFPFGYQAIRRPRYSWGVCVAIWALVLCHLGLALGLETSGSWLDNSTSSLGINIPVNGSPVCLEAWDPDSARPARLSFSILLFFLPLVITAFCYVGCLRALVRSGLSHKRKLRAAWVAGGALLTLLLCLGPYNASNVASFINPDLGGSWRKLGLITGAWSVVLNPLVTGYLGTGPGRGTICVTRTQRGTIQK

## COc1ccc(F)c(N2CCC(Oc3ccc(N4CCC[C@H]4CC(=O)O)cc3)CC2)c1
[1]
  EC50: 4100 nM
[2]
  EC50: > 50000 nM

## CCOc1ccc(F)c(N2CC[C@@H](Oc3ccc(N4CC(C)(C)C[C@@H]4CC(=O)O)cc3)[C@H](C)C2)c1
[2]
  EC50: > 48000 nM

## COc1cc(N2CC[C@@H](Oc3ccc(N4C[C@H](C(F)(F)F)[C@@H](C)[C@@H]4CC(=O)O)cc3)[C@H](C)C2)c(Cl)cn1
[2]
  EC50: > 48000 nM

## CCOc1ccc(F)c(N2CC[C@@H](Oc3ccc(N4C[C@H](c5ccccc5)C[C@@H]4CC(=O)O)cc3)[C@H](C)C2)c1
[3]
  EC50: 230 nM
[2]
  EC50: > 48000 nM

## COc1ccc(F)c(-c2ccc(Cc3ccc(N4C[C@H](C(F)(F)F)C[C@@H]4CC(=O)O)cc3)c(C)c2)c1
[4]
  Activity: Non-Toxic
[5]
  Emax: 97%
[6]
  Activity: Non-Toxic
[7]
  Activity: Non-Toxic
[8]
  Activity: Toxic

## COc1cc(N2CC[C@@H](Oc3ccc(N4C[C@H](F)[C@@H](C)[C@@H]4CC(=O)O)cc3)[C@H](C)C2)c(Cl)cn1
[9]
  concentration at 3 h: 0.156 µM
[10]
  remaining at 10 min: 97%
[3]
  EC50: 29 nM
[2]
  EC50: > 48000 nM
[11]
  EC50: 48 nM
Mus musculus
  Activity: inactive

## CCOc1ccc(F)c(N2CC[C@@H](Oc3ccc(N4C[C@H](OC)C[C@@H]4CC(=O)O)cc3)[C@H](C)C2)c1
[2]
  EC50: 12000 nM

## CCOc1ccc(F)c(N2CCC(Oc3ccc(N4C[C@H](Oc5cccc(OC)c5)C[C@@H]4CC(=O)O)cc3)CC2)c1
[12]
  logD: 2.15
[2]
  EC50: > 47000 nM

## CCOc1ccc(F)c(N2CC[C@@H](Oc3ccc(N4C[C@H](C(F)(F)F)C[C@@H]4CC(=O)O)cc3)[C@H](CC(C)C)C2)c1
[3]
  EC50: 430 nM

## COc1ccc(F)c(N2CCC(Oc3ccc(N4CCC[C@@H]4CC(=O)O)cc3)CC2)c1
[1]
  EC50: 1400 nM
[2]
  EC50: > 50000 nM

## CCOc1ccc(F)c(N2CC[C@@H](Oc3ccc(N4C[C@H](C(F)(F)F)C[C@@H]4CC(=O)O)cc3)[C@H](CC)C2)c1
[3]
  EC50: 430 nM

## CCOc1ccc(F)c(N2CCC(Oc3ccc(N4C[C@H](OCCCOC)C[C@@H]4CC(=O)O)cc3)CC2)c1
[12]
  logD: 0.81
[2]
  EC50: > 47000 nM

## CCCCCO[C@H]1CN(c2ccc(O[C@@H]3CCN(c4cc(OC)ncc4Cl)C[C@H]3C)cc2)[C@@H](CC(=O)O)[C@@H]1C
[3]
  EC50: 190 nM

## CCOc1ccc(F)c(N2CC[C@@H](Oc3ccc(N4C[C@H](C(F)(F)F)C[C@@H]4CC(=O)O)cc3)[C@H](C)C2)c1
[2]
  EC50: > 48000 nM

## CCOc1ccc(F)c(N2CC[C@@H](Oc3ccc(N4C[C@H](C(F)(F)F)C[C@@H]4CC(=O)O)cc3)[C@H](Cc3ccccc3)C2)c1
[3]
  EC50: 740 nM

## COc1cc(N2CC[C@@H](Oc3ccc(N4C[C@H](OCCCC#N)[C@@H](C)[C@@H]4CC(=O)O)cc3)[C@H](C)C2)c(Cl)cn1
[3]
  EC50: 120 nM

## CCOc1ccc(F)c(N2CC[C@@H](Oc3ccc(N4C[C@](C)(OC)C[C@@H]4CC(=O)O)cc3)[C@H](C)C2)c1
[3]
  EC50: 220 nM

## CCOc1ccc(F)c(N2CCC(Oc3ccc(N4C[C@H](Oc5ccccc5)C[C@@H]4CC(=O)O)cc3)CC2)c1
[12]
  logD: 2.44
[2]
  EC50: > 47000 nM

## COc1ccc(F)c(-c2ccc(Cc3ccc(N4N=C(C(F)(F)F)[C@@H](C)[C@@H]4CC(=O)O)cc3)c(C)c2)c1
[13]
  Cmax: 65 µM
[14]
  Tmax: 48 h
[15]
  Tmax: 6 h
[16]
  Cmax: 30 µM
[17]
  Papp A→B: 5.7 ×10⁻⁶ cm/s
[18]
  Tmax: 4 h
[19]
  Cmax: 30 µM
[7]
  Activity: Non-Toxic
[20]
  Cmax: 30 µM
[21]
  AUC: 1080 µM·h
[22]
  AUC: 1430 µM·h
[23]
  AUC: 243 µM·h

## CCOc1ccc(F)c(N2CC[C@@H](Oc3ccc(N4C[C@H](OCCCOC)C[C@@H]4CC(=O)O)cc3)[C@H](C)C2)c1
[12]
  logD: 1.3

## COCCOCO[C@H]1CN(c2ccc(O[C@@H]3CCN(c4cc(OC)ncc4Cl)C[C@H]3C)cc2)[C@@H](CC(=O)O)[C@@H]1C
[3]
  EC50: 180 nM

## COc1cc(N2CC[C@@H](Oc3ccc(N4C[C@H](F)[C@@H](OC)[C@@H]4CC(=O)O)cc3)[C@H](C)C2)c(Cl)cn1
[2]
  EC50: > 48000 nM

## COc1cc(N2CC[C@@H](Oc3ccc(N4CC[C@@H](C)[C@@H]4CC(=O)O)cc3)[C@H](C)C2)c(Cl)cn1
[3]
  EC50: 110 nM
[2]
  EC50: > 48000 nM

## CCOc1ccc(F)c(N2CC[C@@H](Oc3ccc(N4C[C@H](OC)[C@@H](C)[C@@H]4CC(=O)O)cc3)[C@H](C)C2)c1
[24]
  AUC(0-t): 0.5 µM·h
[2]
  EC50: > 48000 nM
[25]
  Cmax: 0.5 µM

## CCOc1ccc(F)c(N2CC[C@@H](Oc3ccc(N4C[C@H](OCCCOC)[C@@H](C)[C@@H]4CC(=O)O)cc3)[C@H](C)C2)c1
[24]
  AUC(0-t): 2.9 µM·h
[12]
  logD: 1.82
[3]
  EC50: 51 nM
[2]
  EC50: > 47000 nM
[11]
  EC50: 18 nM
[25]
  Cmax: 1.4 µM
